# Test results taken from patent US7803930B2, “Antisense modulation of apolipoprotein B-expression” (Isis Pharmaceuticals, Inc., priority 2002, dated 2010).
# In the oligonucleotide strings, read from the 5' end, every base follows the letter of its sugar. An asterisk marks phosphorothioate; unmarked linkages are phosphodiester. Other units and linkages are bracketed, terminal groups are in braces. A string of capitals states the bases alone. e = 2'-O-(2-methoxyethyl) (MOE); [5mC] = 5-methylcytosine; d = 2'-deoxy (DNA)
# Tested on: human apolipoprotein B mRNA
# Experiment: Inhibition of human apolipoprotein B mRNA levels in HepG2 cells, quantitative real-time PCR
# Type: cell-based
# Conditions: HepG2 cells; human apolipoprotein B mRNA; oligonucleotides targeting genomic sequence SEQ ID NO 334; averages from two experiments
# Procedure, shortened: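 Apolipoprotein B transcript was quantified by one-step TaqMan RT-PCR, normalized to GAPDH or RiboGreen RNA, and expressed as percent inhibition against an untreated-sample standard curve. HepG2 cells were harvested 16-24 h after oligonucleotide exposure, which was delivered with 3.75 μg/mL Lipofectin over 4-7 h at 80% confluency.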
row,Substance,% INHIB
1,301168 (antisense e[5mC]*eA*e[5mC]*eT*e[5mC]*dA*dT*dG*dA*d[5mC]*d[5mC]*dA*dG*dA*d[5mC]*eT*eA*eA*eG*eA) [compound 301168],35%
2,301169 (antisense eA*e[5mC]*e[5mC]*eT*e[5mC]*d[5mC]*d[5mC]*dA*dG*dA*dA*dG*d[5mC]*d[5mC]*dT*eT*e[5mC]*e[5mC]*eA*eT) [compound 301169],22%
3,301170 (antisense eT*eT*e[5mC]*eA*eT*dA*dT*dG*dA*dA*dA*dT*d[5mC]*dT*d[5mC]*e[5mC]*eT*eA*e[5mC]*eT) [compound 301170],40%
4,301171 (antisense eT*eA*eT*eT*eT*dA*dA*dT*dT*dT*dA*d[5mC]*dT*dG*dA*eG*eA*eA*eA*e[5mC]) [compound 301171],7%
5,301172 (antisense eT*eA*eA*eT*eG*dT*dG*dT*dT*dG*d[5mC]*dT*dG*dG*dT*eG*eA*eA*eG*eA) [compound 301172],35%
6,301173 (antisense e[5mC]*eA*eT*e[5mC]*eT*d[5mC]*dT*dA*dA*d[5mC]*d[5mC]*dT*dG*dG*dT*eG*eT*e[5mC]*e[5mC]*e[5mC]) [compound 301173],21%
7,301174 (antisense eG*eT*eG*e[5mC]*e[5mC]*dA*dT*dG*d[5mC]*dT*dA*dG*dG*dT*dG*eG*e[5mC]*e[5mC]*eA*eT) [compound 301174],37%
8,301175 (antisense eA*eG*e[5mC]*eA*eA*dA*dT*dT*dG*dG*dG*dA*dT*d[5mC]*dT*eG*eT*eG*e[5mC]*eT) [compound 301175],29%
9,301176 (antisense eT*e[5mC]*eT*eG*eG*dA*dG*dG*d[5mC]*dT*d[5mC]*dA*dG*dA*dA*eA*e[5mC]*eA*eT*eG) [compound 301176],57%
10,301177 (antisense eT*eG*eA*eA*eG*dA*d[5mC]*dA*dG*dG*dG*dA*dG*d[5mC]*d[5mC]*eA*e[5mC]*e[5mC]*eT*eA) [compound 301177],40%
11,301178 (antisense eA*eG*eG*eA*eT*dT*d[5mC]*d[5mC]*d[5mC]*dA*dA*dG*dA*d[5mC]*dT*eT*eT*eG*eG*eA) [compound 301178],38%
12,301179 (antisense e[5mC]*eA*eG*e[5mC]*eT*d[5mC]*dT*dA*dA*dT*d[5mC]*dT*dA*dA*dA*eG*eA*e[5mC]*eA*eT) [compound 301179],22%
13,301180 (antisense eG*eA*eA*eT*eA*d[5mC]*dT*d[5mC]*dA*d[5mC]*d[5mC]*dT*dT*d[5mC]*dT*eG*e[5mC]*eT*eT*eG) [compound 301180],6%
14,301181 (antisense eA*eT*e[5mC]*eT*e[5mC]*dT*d[5mC]*dT*dG*dT*d[5mC]*d[5mC]*dT*d[5mC]*dA*eT*e[5mC]*eT*eT*e[5mC]) [compound 301181],28%
15,301182 (antisense e[5mC]*e[5mC]*eA*eA*e[5mC]*dT*d[5mC]*d[5mC]*d[5mC]*d[5mC]*d[5mC]*dT*dT*dT*d[5mC]*eT*eT*eT*eG*eT) [compound 301182],37%
16,301183 (antisense eT*e[5mC]*eT*eG*eG*dG*d[5mC]*d[5mC]*dA*dG*dG*dA*dA*dG*dA*e[5mC]*eA*e[5mC]*eG*eA) [compound 301183],68%
17,301184 (antisense eT*eA*eT*eT*eG*dT*dG*dT*dG*d[5mC]*dT*dG*dG*dG*d[5mC]*eA*e[5mC]*eT*eG*e[5mC]) [compound 301184],52%
18,301185 (antisense eT*eG*e[5mC]*eT*eT*d[5mC]*dG*d[5mC]*dA*d[5mC]*d[5mC]*dT*dG*dG*dA*e[5mC]*eG*eA*eG*eT) [compound 301185],51%
19,301186 (antisense e[5mC]*e[5mC]*eT*eT*e[5mC]*dT*dT*dT*dA*d[5mC]*d[5mC]*dT*dT*dA*dG*eG*eT*eG*eG*e[5mC]) [compound 301186],37%
20,301187 (antisense eG*e[5mC]*eT*e[5mC]*eT*d[5mC]*dT*d[5mC]*dT*dG*d[5mC]*d[5mC]*dA*d[5mC]*dT*e[5mC]*eT*eG*eA*eT) [compound 301187],47%
21,301188 (antisense eA*eA*e[5mC]*eT*eT*d[5mC]*dT*dA*dA*dA*dG*d[5mC]*d[5mC]*dA*dA*e[5mC]*eA*eT*eT*e[5mC]) [compound 301188],27%
22,301189 (antisense eT*eG*eT*eG*eT*d[5mC]*dA*d[5mC]*dA*dA*d[5mC]*dT*dA*dT*dG*eG*eT*eA*eA*eA) [compound 301189],63%
23,301190 (antisense eA*eG*eA*e[5mC]*eA*d[5mC]*dA*dT*dA*d[5mC]*d[5mC]*dA*dT*dA*dA*eT*eG*e[5mC]*e[5mC]*eA) [compound 301190],22%
24,301191 (antisense eT*eT*e[5mC]*eT*e[5mC]*dT*dT*d[5mC]*dA*dT*d[5mC]*dT*dG*dA*dA*eA*eA*eT*eA*e[5mC]) [compound 301191],21%
25,301192 (antisense eT*eG*eA*eG*eG*dA*dT*dG*dT*dA*dA*dT*dT*dA*dG*e[5mC]*eA*e[5mC]*eT*eT) [compound 301192],27%

row,Substance,% INHIB
1,301193 (antisense eA*eG*e[5mC]*eT*e[5mC]*dA*dT*dT*dG*d[5mC]*d[5mC]*dT*dA*d[5mC]*dA*eA*eA*eA*eT*eG) [compound 301193],31%
2,301194 (antisense eG*eT*eT*e[5mC]*eT*d[5mC]*dA*dT*dG*dT*dT*dT*dA*d[5mC]*dT*eA*eA*eT*eG*e[5mC]) [compound 301194],40%
3,301195 (antisense eG*eA*eA*eT*eT*dG*dA*dG*dA*d[5mC]*dA*dA*d[5mC]*dT*dT*eG*eA*eT*eT*eT) [compound 301195],26%
4,301196 (antisense e[5mC]*e[5mC]*eG*eG*e[5mC]*d[5mC]*dA*dT*d[5mC]*dG*d[5mC]*dT*dG*dA*dA*eA*eT*eG*eA*eA) [compound 301196],54%
5,301197 (antisense e[5mC]*eA*eT*eA*eG*d[5mC]*dT*d[5mC]*dA*d[5mC]*d[5mC]*dT*dT*dG*d[5mC]*eA*e[5mC]*eA*eT*eT) [compound 301197],28%
6,301198 (antisense e[5mC]*eG*eG*eT*eG*d[5mC]*dA*d[5mC]*d[5mC]*d[5mC]*dT*dT*dT*dA*d[5mC]*e[5mC]*eT*eG*eA*eG) [compound 301198],28%
7,301199 (antisense eT*e[5mC]*eT*e[5mC]*e[5mC]*dA*dG*dA*dT*d[5mC]*d[5mC]*dT*dA*dA*d[5mC]*eA*eT*eA*eA*eA) [compound 301199],19%
8,301200 (antisense eT*eT*eG*eA*eA*dT*dG*dA*d[5mC]*dA*d[5mC]*dT*dA*dG*dA*eT*eT*eT*eT*e[5mC]) [compound 301200],37%
9,301201 (antisense eA*eA*eA*eA*eT*d[5mC]*d[5mC]*dA*dT*dT*dT*dT*d[5mC]*dT*dT*eT*eA*eA*eA*eG) [compound 301201],12%
10,301202 (antisense e[5mC]*eA*eG*e[5mC]*eT*d[5mC]*dA*d[5mC]*dA*d[5mC]*dT*dT*dA*dT*dT*eT*eT*eA*eA*eA) [compound 301202],7%
11,301203 (antisense eG*eT*eT*e[5mC]*e[5mC]*d[5mC]*dA*dA*dA*dA*d[5mC]*dT*dG*dT*dA*eT*eA*eG*eG*eA) [compound 301203],36%
12,301204 (antisense eA*eG*e[5mC]*eT*e[5mC]*d[5mC]*dA*dT*dA*d[5mC]*dT*dG*dA*dA*dG*eT*e[5mC]*e[5mC]*eT*eT) [compound 301204],37%
13,301205 (antisense e[5mC]*eA*eA*eT*eT*d[5mC]*dA*dA*dT*dA*dA*dA*dA*dG*d[5mC]*eT*e[5mC]*e[5mC]*eA*eT) [compound 301205],31%
14,301206 (antisense eG*eT*eT*eT*eT*d[5mC]*dA*dA*dA*dA*dG*dG*dT*dA*dT*eA*eA*eG*eG*eT) [compound 301206],28%
15,301207 (antisense eT*eT*e[5mC]*e[5mC]*e[5mC]*dA*dT*dT*d[5mC]*d[5mC]*d[5mC]*dT*dG*dA*dA*eA*eG*e[5mC]*eA*eG) [compound 301207],13%
16,301208 (antisense eT*eG*eG*eT*eA*dT*dT*dT*dA*d[5mC]*d[5mC]*dT*dG*dA*dG*eG*eG*e[5mC]*eT*eG) [compound 301208],21%
17,301209 (antisense eA*eT*eA*eA*eA*dT*dA*dA*dT*dA*dG*dT*dG*d[5mC]*dT*eG*eA*eT*eG*eG) [compound 301209],39%
18,301210 (antisense e[5mC]*eT*eA*eT*eG*dG*d[5mC]*dT*dG*dA*dG*d[5mC]*dT*dT*dG*e[5mC]*e[5mC]*eT*eA*eT) [compound 301210],33%
19,301211 (antisense e[5mC]*eT*e[5mC]*eT*e[5mC]*dT*dG*dA*dA*dA*dA*dA*dT*dA*dT*eA*e[5mC]*e[5mC]*e[5mC]*eT) [compound 301211],17%
20,301212 (antisense eT*eT*eG*eA*eT*dG*dT*dA*dT*d[5mC]*dT*d[5mC]*dA*dT*d[5mC]*eT*eA*eG*e[5mC]*eA) [compound 301212],41%
21,301213 (antisense eT*eA*eG*eA*eA*d[5mC]*d[5mC]*dA*dT*dG*dT*dT*dT*dG*dG*eT*e[5mC]*eT*eT*e[5mC]) [compound 301213],35%
22,301214 (antisense eT*eT*eT*e[5mC]*eT*d[5mC]*dT*dT*dT*dA*dT*d[5mC]*dA*d[5mC]*dA*eT*eG*e[5mC]*e[5mC]*e[5mC]) [compound 301214],29%
23,301215 (antisense eT*eA*eT*eA*eG*dT*dA*d[5mC]*dA*d[5mC]*dT*dA*dA*dA*dA*e[5mC]*eT*eT*e[5mC]*eA) [compound 301215],1%
24,301216 (antisense e[5mC]*eT*eG*eG*eA*dG*dA*dG*dG*dA*d[5mC]*dT*dA*dA*dA*e[5mC]*eA*eG*eA*eG) [compound 301216],49%
